The values below come from patent publication US20050282743A1, “Molecular interactions in cells” (Arbor Vita Corporation, priority 2001, published 2005).

Ends that are not written are not given here. Peptide text beside a SMILES is read from it. * marks the point of attachment. Biotin = O=C1N[C@H]2[C@H](CS[C@H]2CCCCC(=O)*)N1

What all share (assay): G' assay (10 uM PL peptide), results of TABLE 7 and TABLE 12
Assay type in all cases: binding

For test [1], the target named is T1, PDZ protein (GST-PDZ fusion) (Homo sapiens, UniProt Q9P202).
T1 construct: made in house; host or cells: E. coli (DH5alpha, BL21 or JM109)
T1 sequence (Q9P202 1-907): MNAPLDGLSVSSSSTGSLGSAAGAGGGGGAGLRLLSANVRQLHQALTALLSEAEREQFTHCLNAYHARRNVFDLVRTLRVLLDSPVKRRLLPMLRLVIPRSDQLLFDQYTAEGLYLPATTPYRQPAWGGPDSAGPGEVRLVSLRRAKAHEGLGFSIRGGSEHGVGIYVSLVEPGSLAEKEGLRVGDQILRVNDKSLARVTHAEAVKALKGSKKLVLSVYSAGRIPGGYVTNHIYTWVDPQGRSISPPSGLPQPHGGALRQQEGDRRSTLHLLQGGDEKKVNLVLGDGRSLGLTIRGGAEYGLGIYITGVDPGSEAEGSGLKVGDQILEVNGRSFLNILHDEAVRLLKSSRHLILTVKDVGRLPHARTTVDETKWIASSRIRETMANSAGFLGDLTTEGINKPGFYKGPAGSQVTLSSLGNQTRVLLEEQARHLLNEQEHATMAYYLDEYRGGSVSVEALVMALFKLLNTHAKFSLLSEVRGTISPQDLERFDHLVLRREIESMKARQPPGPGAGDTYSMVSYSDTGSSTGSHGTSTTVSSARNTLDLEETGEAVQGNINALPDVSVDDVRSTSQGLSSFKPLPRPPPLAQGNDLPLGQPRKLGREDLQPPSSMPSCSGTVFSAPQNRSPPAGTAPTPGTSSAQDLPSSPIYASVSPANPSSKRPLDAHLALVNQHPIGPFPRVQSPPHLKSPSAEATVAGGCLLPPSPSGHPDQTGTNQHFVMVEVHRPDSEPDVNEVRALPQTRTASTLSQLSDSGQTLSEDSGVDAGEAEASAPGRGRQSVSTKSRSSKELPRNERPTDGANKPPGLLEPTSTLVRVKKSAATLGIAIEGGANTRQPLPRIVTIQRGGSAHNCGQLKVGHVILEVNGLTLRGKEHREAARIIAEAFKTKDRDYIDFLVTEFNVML
The following applies: PDZ KIAA1526, PDZ Domain 1. The gist of the method: (§1)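 Same steps as the G-zero format, apart from a peptide concentration of 10 uM in place of 20 uM in step 2. Amino-terminally biotinylated PL peptides bind GST-PDZ fusions, and retained peptide is quantified by 450 nm absorbance.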

In test [2] the target is T2, PDZ protein (GST-PDZ fusion) (Homo sapiens, UniProt Q15700).
T2 construct: made in house; host or cells: E. coli (DH5alpha, BL21 or JM109)
T2 sequence (Q15700 whole entry, the tested form may be a part): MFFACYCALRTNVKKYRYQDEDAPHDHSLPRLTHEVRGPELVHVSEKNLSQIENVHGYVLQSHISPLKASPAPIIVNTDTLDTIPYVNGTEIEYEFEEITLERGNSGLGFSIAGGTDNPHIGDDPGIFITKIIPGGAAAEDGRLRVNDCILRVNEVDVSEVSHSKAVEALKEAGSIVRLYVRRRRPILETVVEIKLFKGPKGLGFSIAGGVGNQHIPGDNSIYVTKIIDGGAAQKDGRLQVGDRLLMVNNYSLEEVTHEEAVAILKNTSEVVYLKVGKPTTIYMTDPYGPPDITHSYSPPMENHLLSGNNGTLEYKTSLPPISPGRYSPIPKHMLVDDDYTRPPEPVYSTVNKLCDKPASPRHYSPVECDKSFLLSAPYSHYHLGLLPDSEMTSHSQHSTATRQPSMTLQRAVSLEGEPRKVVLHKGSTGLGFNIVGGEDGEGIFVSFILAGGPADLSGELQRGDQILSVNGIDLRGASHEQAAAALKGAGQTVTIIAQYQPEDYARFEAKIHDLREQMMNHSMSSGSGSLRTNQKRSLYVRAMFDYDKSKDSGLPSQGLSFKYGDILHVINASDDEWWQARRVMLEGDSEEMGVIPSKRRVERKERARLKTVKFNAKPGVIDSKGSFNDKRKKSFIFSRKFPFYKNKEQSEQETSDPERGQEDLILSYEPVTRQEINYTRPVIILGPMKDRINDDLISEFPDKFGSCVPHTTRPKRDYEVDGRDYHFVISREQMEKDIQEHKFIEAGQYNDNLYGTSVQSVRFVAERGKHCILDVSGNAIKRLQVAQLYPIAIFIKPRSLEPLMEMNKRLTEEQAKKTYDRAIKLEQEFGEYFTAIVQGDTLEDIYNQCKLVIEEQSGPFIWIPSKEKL
The procedure, abridged:
as §1

Test [3] has as its target T3, PDZ protein (GST-PDZ fusion) (Homo sapiens, UniProt P57105).
T3 construct: made in house; host or cells: E. coli (DH5alpha, BL21 or JM109)
T3 sequence (P57105 1-145): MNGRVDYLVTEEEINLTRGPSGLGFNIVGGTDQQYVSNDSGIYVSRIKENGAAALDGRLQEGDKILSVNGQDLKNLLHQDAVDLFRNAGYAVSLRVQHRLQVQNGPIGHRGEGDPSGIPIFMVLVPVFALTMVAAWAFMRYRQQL
The following applies: PDZ Outer Membrane, PDZ Domain 1. The gist of the method:
as §1

The target of test [4] is T4, PDZ protein (GST-PDZ fusion) (Homo sapiens, UniProt Q92796).
T4 construct: made in house; host or cells: E. coli (DH5alpha, BL21 or JM109)
T4 sequence (Q92796 1-817): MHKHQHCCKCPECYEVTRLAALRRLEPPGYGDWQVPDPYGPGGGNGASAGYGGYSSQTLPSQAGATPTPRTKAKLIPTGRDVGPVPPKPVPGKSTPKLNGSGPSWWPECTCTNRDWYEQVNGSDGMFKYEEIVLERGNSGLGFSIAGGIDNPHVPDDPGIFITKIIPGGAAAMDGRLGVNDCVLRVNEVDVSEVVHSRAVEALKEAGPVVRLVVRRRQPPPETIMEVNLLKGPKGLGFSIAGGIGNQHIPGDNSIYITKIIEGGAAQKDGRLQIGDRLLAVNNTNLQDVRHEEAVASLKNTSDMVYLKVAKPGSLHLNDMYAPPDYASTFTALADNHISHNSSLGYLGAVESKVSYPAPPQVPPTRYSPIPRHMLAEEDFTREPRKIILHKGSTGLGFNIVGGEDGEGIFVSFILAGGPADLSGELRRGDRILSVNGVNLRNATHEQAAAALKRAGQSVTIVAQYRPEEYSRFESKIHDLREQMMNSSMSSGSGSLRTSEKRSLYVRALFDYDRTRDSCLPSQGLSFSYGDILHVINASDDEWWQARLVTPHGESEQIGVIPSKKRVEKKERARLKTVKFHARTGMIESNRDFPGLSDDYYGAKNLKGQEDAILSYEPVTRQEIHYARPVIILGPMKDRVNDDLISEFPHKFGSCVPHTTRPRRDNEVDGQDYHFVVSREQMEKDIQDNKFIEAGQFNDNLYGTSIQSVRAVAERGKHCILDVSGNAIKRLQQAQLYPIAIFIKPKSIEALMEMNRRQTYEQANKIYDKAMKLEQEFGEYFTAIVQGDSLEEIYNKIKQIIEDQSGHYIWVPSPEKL
The following applies: PDZ NeDLG. The procedure, abridged: as §1

In the case of `CSCC[C@H](NC(=O)[C@H](C)NC(=O)[C@H](CCCNC(=N)N)NC(=O)CNC(=O)[C@@H](NC(=O)[C@H](Cc1c[nH]c2ccccc12)NC(=O)[C@H](CCCNC(=N)N)NC(=O)CNC(=O)CCCC[C@@H]1SC[C@@H]2NC(=O)N[C@@H]21)[C@@H](C)O)C(=O)N[C@@H](CO)C(=O)N[C@@H](C)C(=O)N[C@@H](Cc1c[nH]c2ccccc12)C(=O)N[C@@H](CCCCN)C(=O)N1CCC[C@H]1C(=O)N[C@H](C(=O)N[C@@H](CCCNC(=N)N)C(=O)N[C@@H](CCCNC(=N)N)C(=O)N[C@@H](CCC(=O)O)C(=O)N[C@H](C(=O)N[C@@H](CCC(=O)O)C(=O)N[C@H](C(=O)O)C(C)C)[C@@H](C)O)[C@@H](C)O` [HPV E6 #35 (modified)] (Biotin-GRWTGRAMSAWKPTRRETEV-OH; C-terminus assumed), the Classification was 3 (A450 nm 2-3) in test [1]; 5 (A450 nm of 4 more than 2× repeated) in test [2] (PDZ DLG2, PDZ Domain 1); 5 (A450 nm of 4 more than 2× repeated) in test [2] (PDZ DLG2, PDZ Domain 2); 5 (A450 nm of 4 more than 2× repeated) in test [3]; 5 (A450 nm of 4 more than 2× repeated) in test [4] (PDZ Domain 1); 5 (A450 nm of 4 more than 2× repeated) in test [4] (PDZ Domain 1, 2). The Classification in test [4] (PDZ Domain 2) and in test [4] (PDZ Domain 3) was 5 (A450 nm of 4 more than 2× repeated) throughout.
As for “PYSELNYETSHYPASPDSWV (Biotin-PYSELNYETSHYPASPDSWV) [catenin - delta 2]”, the Classification in test [1] was 2 (A450 nm 1-2); in test [2] (PDZ DLG2, PDZ Domain 2), 1 (A450 nm 0-1); in test [3], 5 (A450 nm of 4 more than 2× repeated); in test [4] (PDZ Domain 3) it was 1 (A450 nm 0-1).
For `CC(C)C[C@H](NC(=O)[C@H](C)NC(=O)[C@H](CO)NC(=O)CNC(=O)[C@@H](NC(=O)CCCC[C@@H]1SC[C@@H]2NC(=O)N[C@@H]21)[C@@H](C)O)C(=O)N[C@@H](CCC(N)=O)C(=O)N[C@@H](C)C(=O)N[C@@H](Cc1c[nH]c2ccccc12)C(=O)N[C@@H](CCCNC(=N)N)C(=O)N[C@@H](Cc1c[nH]cn1)C(=O)N[C@H](C(=O)N[C@@H](CO)C(=O)N[C@@H](CCCNC(=N)N)C(=O)N[C@@H](CCC(N)=O)C(=O)N[C@@H](C)C(=O)N[C@H](C(=O)N[C@@H](CCC(=O)O)C(=O)N[C@@H](CO)C(=O)N[C@H](C(=O)N[C@H](C(=O)O)C(C)C)[C@@H](C)O)[C@@H](C)O)[C@@H](C)O` [HPV E6 #66 (modified)] (Biotin-TGSALQAWRHTSRQATESTV-OH; C-terminus assumed), the Classification in test [1] was 1 (A450 nm 0-1); in test [2] (PDZ DLG2, PDZ Domain 1), 1 (A450 nm 0-1); in test [2] (PDZ DLG2, PDZ Domain 2) it was 5 (A450 nm of 4 more than 2× repeated); in test [3] it was 5 (A450 nm of 4 more than 2× repeated); in test [4] (PDZ Domain 1), 1 (A450 nm 0-1); in test [4] (PDZ Domain 1, 2), 5 (A450 nm of 4 more than 2× repeated). In test [4] (PDZ Domain 2), the Classification is 4 (A450 nm 3-4).
Regarding `CC(C)C[C@H](NC(=O)[C@H](C)NC(=O)[C@@H](NC(=O)[C@H](CCC(=O)O)NC(=O)[C@H](CCCNC(=N)N)NC(=O)[C@H](CCCNC(=N)N)NC(=O)CNC(=O)[C@H](CCC(N)=O)NC(=O)[C@H](CC(C)C)NC(=O)[C@H](CCCNC(=N)N)NC(=O)CNC(=O)CNC(=O)[C@H](CCCNC(=N)N)NC(=O)[C@H](C)NC(=O)[C@H](CO)NC(=O)[C@H](CCCNC(=N)N)NC(=O)CNC(=O)CNC(=O)[C@H](C)NC(=O)[C@H](C)NC(=O)CCCC[C@@H]1SC[C@@H]2NC(=O)N[C@@H]21)[C@@H](C)O)C(=O)O` [HPV E6 33 (modified)] (Biotin-AAGGRSARGGRLQGRRETAL-OH; C-terminus assumed), the Classification in test [1] is recorded as 1 (A450 nm 0-1); in test [2] (PDZ DLG2, PDZ Domain 1) it was 1 (A450 nm 0-1); in test [2] (PDZ DLG2, PDZ Domain 2), 3 (A450 nm 2-3); in test [3] it was 5 (A450 nm of 4 more than 2× repeated); in test [4] (PDZ Domain 1), 1 (A450 nm 0-1); in test [4] (PDZ Domain 1, 2), 5 (A450 nm of 4 more than 2× repeated). Also, the Classification is listed as 2 (A450 nm 1-2) in test [4] (PDZ Domain 2) and 1 (A450 nm 0-1) in test [4] (PDZ Domain 3).
Consider `CC(C)C[C@H](NC(=O)[C@H](CCCNC(=N)N)NC(=O)CNC(=O)CNC(=O)[C@H](CCCNC(=N)N)NC(=O)[C@H](C)NC(=O)[C@@H]1CCCN1C(=O)[C@H](CCCNC(=N)N)NC(=O)CNC(=O)CNC(=O)[C@@H](NC(=O)[C@H](C)NC(=O)CCCC[C@@H]1SC[C@@H]2NC(=O)N[C@@H]21)C(C)C)C(=O)N[C@@H](CCC(N)=O)C(=O)NCC(=O)N[C@@H](CCCNC(=N)N)C(=O)N[C@@H](CCCNC(=N)N)C(=O)N[C@@H](CCC(N)=O)C(=O)N[C@H](C(=O)N[C@@H](CCC(N)=O)C(=O)N[C@H](C(=O)O)C(C)C)[C@@H](C)O` [HPV E6 58 (modified)] (Biotin-AVGGRPARGGRLQGRRQTQV-OH; C-terminus assumed), for which the Classification in test [1] is reported as 1 (A450 nm 0-1); in test [2] (PDZ DLG2, PDZ Domain 2), 5 (A450 nm of 4 more than 2× repeated); in test [3], 5 (A450 nm of 4 more than 2× repeated); in test [4] (PDZ Domain 1), 1 (A450 nm 0-1); in test [4] (PDZ Domain 1, 2) it was 5 (A450 nm of 4 more than 2× repeated); in test [4] (PDZ Domain 2), 5 (A450 nm of 4 more than 2× repeated). Further, in test [4] (PDZ Domain 3), the Classification was 2 (A450 nm 1-2).
